Results reported in patent US7544679B2 (Hoffman-La Roche Inc., priority 2007, dated 2009).
In brackets after ≈: the same amount, converted by molar mass. Like-named read-outs stand apart in the source and are kept apart here.

Legend:
γ-secretase = target: T1, γ-secretase (Homo sapiens, UniProt P49768); test: in vitro assay of γ-secretase activity (HEK293 membrane fraction, recombinant APP substrate, Abeta ELISA); type: biochemical; conditions: for Comments: potency (and THESA solubility) of the present example compared with the corresponding example from WO 2005/023772
T1 construct: HEK293 membrane fraction as a source of γ-secretase
Excerpt: Description of γ-secretase Assay
The activity of test compounds can be evaluated in assays which measure the proteolytic cleavage of suitable substrates by γ-secretase activity. These can be cellular assays where e.g., a substrate of the γ-secretase is fused in its cytoplasmic domain to a transcription factor. Cells are transfected with this fusion gene and a reporter gene, e.g., firefly luciferase, which expression is enhanced by the transcription factor. Cleavage of the fused substrate by γ-secretase will lead to expression of the reporter gene which can be monitored in appropriate assays. The γ-secretase activity can also be determined in cell-free in vitro assays where e.g., a cell lysate containing the γ-secretase complex is incubated with a suitable APP-derived substrate which is cleaved to the Abeta peptides. The amount of produced peptides can be determined with specific ELISA assays. Cell lines of neuronal origin secrete Abeta peptides which can be measured with the specific ELISA assay. Treatment with compounds which inhibit γ-secretase leads to a reduction of secreted Abeta thus providing a measure of inhibition.
The in vitro assay of γ-secretase activity uses a HEK293 membrane fraction as a source of γ-secretase and a recombinant APP substrate. Latter consist of the C-terminal 100 amino acids of human APP fused to a 6×Histidin tail for purification which is expressed in E.coli in a regulatable expression vector, e.g. pEt15. This recombinant protein corresponds to the truncated APP fragment which results after […] of the extracellular domain and which constitutes the γ-secretase substrate. The assay principle is described in Li Y M et al, PNAS 97(11), 6138-6143 (2000). Hek293 cells are mechanically disrupted and the microsomal fraction is isolated by differential centrifugation. The membranes are solubilized in detergent (0.25% CHAPSO) and incubated with the APP substrate. The Abeta peptides which are produced by γ-secretase cleavage of the substrate are detected by specific ELISA assays as described (Brockhaus M et al, Neuroreport 9(7), 1481-1486 (1998).

[1] = THESA assay for determination of the thermodynamic solubility; type: physicochemical; conditions: 22.5 °C, aqueous buffer, thermodynamic from solid, second figure of the cell
Description: In addition, the compounds of the present invention have been tested in a THESA assay for determination of the thermodynamic solubility.
Approximately 2 mg of each compound was added in excess to a 50 mM phosphate buffer, at room temperature (22.5±1° C.). Each sample was placed in a microanalysis tube, which was sonicated for 1 h and agitated for 2 h. All suspensions were left overnight. At the next day all pHs were measured with a pH-meter and the samples filtered with a micronic filterplate (MSGVN2250) to separate the solid material from the solution. Then, all solutions were analyzed by HPLC. The calibration line was established by different concentrations of the compound in DMSO. From this regression equation the solubility of the compound was determined.

[2] = 50 mM phosphate buffer, room temperature (22.5±1° C.), read-out: THESA (IC50/THESA, Example No. present appl.)
[3] = comparison compounds from WO 2005/023772, 50 mM phosphate buffer, room temperature, read-out: THESA (IC50/THESA, Corresponding Example from WO 2005/023772)

SMILES: CCCC(O)(C(=O)NCCC(F)(F)F)C(=O)N[C@@H]1C(=O)Nc2ccccc2-c2ccccc21 (mixture of isomers) [Example 6a]
- Comments (γ-secretase): Higher potency

SMILES: CC(O)(C(=O)NCC(F)(F)C(F)(F)F)C(=O)N[C@@H]1C(=O)N(CC(F)(F)F)c2ccccc2-c2ccccc21 (mixture of isomers) [Example 12a]
- Comments (γ-secretase): Higher potency

SMILES: CCCC(O)(C(N)=O)C(=O)N(CCC(F)(F)F)[C@@H]1C(=O)Nc2ccccc2-c2ccccc21 (single isomer, unassigned) [Example 6g, (R or S)-2-Hydroxy-N-((S)-6-oxo-6,7-dihydro-5H-dibenzo[b,d]azepin-7-yl)-2-propyl-N-(3,3,3-trifluoro-propyl)-malonamide]
- Comments (γ-secretase): Higher potency

SMILES: C[C@@](O)(C(=O)NCC(F)(F)C(F)(F)F)C(=O)N[C@@H]1C(=O)Nc2ccccc2-c2ccccc21 [Example 1b, (R)-2-Hydroxy-2-methyl-N-((S)-6-oxo-6,7-dihydro-5H-dibenzo[b,d]azepin-7-yl)-N′-(2,2,3,3,3-pentafluoro-propyl)-malonamide]
- solubility thermodynamic [1, 2]: 19 µg/mL (≈ 40.3 µM)

SMILES: C[C@](O)(C(=O)NCC(F)(F)C(F)(F)F)C(=O)N[C@@H]1C(=O)Nc2ccccc2-c2ccccc21 [Example 1c, (S)-2-Hydroxy-2-methyl-N-((S)-6-oxo-6,7-dihydro-5H-dibenzo[b,d]azepin-7-yl)-N′-(2,2,3,3,3-pentafluoro-propyl)-malonamide]
- solubility thermodynamic [1, 2]: 14 µg/mL (≈ 29.7 µM)

SMILES: C[C@](O)(C(=O)NCCC(F)(F)F)C(=O)N[C@@H]1C(=O)Nc2ccccc2-c2ccccc21 [Example 2c, (S)-2-Hydroxy-2-methyl-N-((S)-6-oxo-6,7-dihydro-5H-dibenzo[b,d]azepin-7-yl)-N′-(3,3,3-trifluoro-propyl)-malonamide]
- solubility thermodynamic [1, 2]: 127 µg/mL (≈ 292 µM)
- Comments (γ-secretase): Higher potency, higher solubility

SMILES: C[C@](O)(C(=O)NCC(F)(F)F)C(=O)N[C@@H]1C(=O)Nc2ccccc2-c2ccccc21 [Example 3b, (S)-2-Hydroxy-2-methyl-N-((S)-6-oxo-6,7-dihydro-5H-dibenzo[b,d]azepin-7-yl)-N′-(2,2,2-trifluoro-ethyl)-malonamide]
- solubility thermodynamic [1, 2]: 26 µg/mL (≈ 61.7 µM)
- Comments (γ-secretase): Higher potency, higher solubility

SMILES: C[C@](O)(C(=O)NCC(F)(F)F)C(=O)N[C@@H]1C(=O)N(CC(F)(F)F)c2ccccc2-c2ccccc21 [Example 13b, (S)-2-Hydroxy-2-methyl-N-[(S)-6-oxo-5-(2,2,2-trifluoro-ethyl)-6,7-dihydro-5H-dibenzo[b,d]azepin-7-yl]-N′-(2,2,2-trifluoro-ethyl)-malonamide]
- solubility thermodynamic [1, 2]: 14 µg/mL (≈ 27.8 µM)
- Comments (γ-secretase): Higher potency

SMILES: C[C@](F)(C(=O)NCC(F)(F)C(F)(F)F)C(=O)N[C@H]1C(=O)Nc2ccccc2-c2ccccc21 [reference compound]
- solubility thermodynamic [1, 3]: < 1 µg/mL

SMILES: C[C@@](F)(C(=O)NCC(F)(F)C(F)(F)F)C(=O)N[C@H]1C(=O)Nc2ccccc2-c2ccccc21 [reference compound]
- solubility thermodynamic [1, 3]: < 1 µg/mL

SMILES: CC(C)(C(=O)NCCC(F)(F)F)C(=O)N[C@H]1C(=O)Nc2ccccc2-c2ccccc21 [reference compound]
- solubility thermodynamic [1, 3]: < 1 µg/mL

SMILES: CC(C)(C(=O)NCC(F)(F)F)C(=O)N[C@H]1C(=O)Nc2ccccc2-c2ccccc21 [reference compound]
- solubility thermodynamic [1, 3]: 16 µg/mL (≈ 38.1 µM)

SMILES: CCCC(C)(C(=O)NCCC(F)(F)F)C(=O)N[C@H]1C(=O)Nc2ccccc2-c2ccccc21 (stereo partly shown) [reference compound]
- IC50 (IC50/THESA, Corresponding Example from WO 2005/023772) (γ-secretase; first figure of the cell, comparison compounds from WO 2005/023772): nearly inactive/—
